Measured values from patent publication US10849901B2, “Arf6 inhibitors and methods of synthesis and use thereof” (Navigen, Inc., priority 2014, dated 2020).

target: Arf6 (Homo sapiens (Human), UniProt P62330); experiment: Fluorometric assay for Arf6 nucleotide exchange catalyzed by ARNO Sec7 domain (GTP-BODIPY FL); type: biochemical; conditions: 20 nM Arf6 assay; read-out: IC50 (μM) 20 nM Arf6
Protocol: FIGS. 1A-1D: Fluorometric high throughput assay for Arf6 nucleotide exchange catalyzed by ARNO Sec7 domain. FIG. 1A: Principle of the assay. FIG. 1B: SDS-PAGE analysis of N-terminally His-tagged Arf6(14-175) and ARNO(50-255) purified from the E. coli cultures by immobilized metal affinity chromatography. FIG. 1C: Correlation between signal intensity and ARNO concentration. The assay was performed using 50 mM Tris-HCl, pH 7.5, 1 mM MgCl2, 0.01% TX-100, 1% DMSO, 50 nM GTP-BODIPY FL, supplemented with ARNO-Sec7 at indicated concentrations in the absence or in the presence of 0.2 μM Arf6-GDP. Fluorescence intensities were monitored using a Synergy 4 plate reader (BioTek) at the excitation and emission wavelengths of 490 nm and 520 nm, respectively. FIG. 1D: Time course of apparent inhibitory potency of GDP. The assay was performed in automated mode using a Matrix PlateMate liquid handler.
The primary biochemical assay uses a fluorometric assay for monitoring the replacement of bound nucleotide with a fluorogenic GTP derivative bearing a BODIPY FL moiety, allowing for the identification of compounds that can inhibit this exchange (see FIG. 1A). In certain embodiments, the methods disclosed herein may exploit the reduction of intramolecular fluorescence quenching of the modified nucleotide upon its binding to the target protein (see, e.g., McEwen D P, Gee K R, Kang H C, Neubig R R. Fluorescent BODIPY-GTP analogs: real-time measurement of nucleotide binding to G proteins. Anal Biochem. 2001 Apr. 1; 291(1): 109-17).
The fluorometric assay formatted for 96-well microtiter plates has passed quality control based on the following criteria: i) S/B ratio of 4-fold and Z′-factor of 0.61; ii) linear correlation between signal intensity and ARNO concentration (see FIG. 1C); iii) sufficiently reproducible inhibitory effects of the reference inhibitor GDP for assay durations up to at least 1 hour (see FIG. 1D); and iv) lack of apparent fluorescence quenchers among 400 randomly selected compounds. The assay is amenable to automation with a throughput of approximately 5,000 data points per 8 hours.

Chain of Arf6 (P62330 14-175): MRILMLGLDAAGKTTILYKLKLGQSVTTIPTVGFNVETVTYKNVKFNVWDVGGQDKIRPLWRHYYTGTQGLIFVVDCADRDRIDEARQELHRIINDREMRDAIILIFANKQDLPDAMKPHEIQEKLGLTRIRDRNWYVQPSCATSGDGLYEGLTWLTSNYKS

| SMILES | IC50 |
| --- | --- |
| O=c1cc(Cc2cccnc2)[nH]c2c(-c3ccc(Cl)cc3)c(C(F)(F)F)nn12 [Compound 102] | 14 µM |
| CC(C)(C)c1nn2c(=O)cc(-c3ccccn3)[nH]c2c1-c1ccc(Cl)cc1 [Compound 82] | 6 µM |
| N#Cc1cccc(-c2cc(=O)n3nc(C4CC4)c(-c4ccc(Cl)cc4)c3[nH]2)c1 [Compound 79] | 5.5 µM |
| Cc1nn2c(=O)cc(-c3ccc(F)cc3)[nH]c2c1-c1ccc(Cl)cc1 [Compound 93] | 8.2 µM |
| O=C(O)c1ccccc1-c1cc(=O)n2nc(C(F)(F)F)c(-c3ccc(Cl)cc3)c2[nH]1 [Compound 92] | 8.1 µM |
| Cn1c(N)c(C(=O)COC(=O)c2ccccc2SCc2ccc(C#N)cc2)c(=O)[nH]c1=O [Compound 134] | 13 µM |
| Cc1nn2c(=O)cc(-c3ccc([N+](=O)[O-])cc3)[nH]c2c1-c1ccc(S(C)(=O)=O)cc1 [Compound 94] | 8.8 µM |
| O=c1cc(-c2ccc([N+](=O)[O-])cc2)[nH]c2c(-c3ccc(Cl)cc3)c(CO)nn12 [Compound 90] | 7.8 µM |
| Cc1nn2c(=O)cc(C3CCCC3)[nH]c2c1-c1ccc(Cl)cc1 [Compound 106] | 16 µM |
| O=C(Nc1cccc(-c2cc(=O)n3nc(C(F)(F)F)c(-c4ccc(Cl)cc4)c3[nH]2)c1)c1ccccc1 [Compound 111] | 20 µM |
| Cc1ccc(C(=O)OCc2cc(=O)n3cc(Br)ccc3n2)cn1 [Compound 130] | 9.9 µM |
| Nc1cccc(-c2cc(=O)n3nc(C(F)(F)F)c(-c4ccc(Cl)cc4)c3[nH]2)c1 [Compound 88] | 7 µM |
| Nc1ccc(-c2cc(=O)n3nc(C(F)(F)F)c(-c4ccc(Cl)cc4)c3[nH]2)cc1 [Compound 78] | 5.2 µM |
| CCNC(=O)Nc1ccc(-c2cc(=O)n3nc(C)c(-c4ccc(Cl)cc4)c3[nH]2)cc1 [Compound 97] | 11 µM |
| N#Cc1ccc(-c2cc(=O)n3nc(C4CCOCC4)c(-c4ccc(Cl)cc4)c3[nH]2)cc1 [Compound 112] | 20 µM |

Now from value to compound:

| IC50 | SMILES |
| --- | --- |
| 4.5 µM | Cc1nn2c(=O)cc(-c3ccc([N+](=O)[O-])cc3)[nH]c2c1-c1ccc(Cl)cc1Cl [Compound 76] |
| 3.7 µM | NC(=O)c1ccc(-c2cc(=O)n3nc(Cc4ccccc4)c(-c4ccc(Cl)cc4)c3[nH]2)cc1 [Compound 66] |
| 3.6 µM | O=c1cc(-c2ccc([N+](=O)[O-])cc2)[nH]c2c(-c3ccc(Cl)cc3)c(CC3CCOCC3)nn12 [Compound 63] |
| 3 µM | Cc1nn2c(=O)cc(-c3cccc(-c4cccnc4)c3)[nH]c2c1-c1ccc(Cl)cc1 [Compound 53] |
| 2.4 µM | O=c1cc(-c2ccc([N+](=O)[O-])cc2)[nH]c2c(-c3ccc(Cl)cc3)c(Cc3ccncc3)nn12 [Compound 46] |
| 1.5 µM | CC(C)(C)c1nn2c(=O)cc(-c3ccccc3C#N)[nH]c2c1-c1ccc(Cl)cc1 [Compound 32] |
| 1.2 µM | Fc1ccc(C2=CCN(c3nc(-c4ccncc4)nc4c3CNC4)CC2)cc1 [Compound 142] |
| 1.1 µM | O=c1cc(-c2ccc([N+](=O)[O-])cc2)[nH]c2c(-c3cccc4ccccc34)c(Cc3ccccc3)nn12 [Compound 20] |
| 0.96 µM | O=c1cc(-c2ccc([N+](=O)[O-])cc2)[nH]c2c(-c3ccc(Cl)cc3)c(-c3ccccc3)nn12 [Compound 11] |
| 0.67 µM | O=c1cc(-c2ccc([N+](=O)[O-])cc2)[nH]c2c(-c3ccc(Cl)c(C(F)(F)F)c3)c(C(F)(F)F)nn12 [Compound 8] |
| 0.25 µM | O=c1cc(-c2cccc(-c3cccnc3)c2)[nH]c2c(-c3ccc(Cl)c(Cl)c3)c(C(F)(F)F)nn12 [Compound 1] |

same assay, conditions: 20 nM assay; 10 μM concentration

| SMILES | inhibition at 10 µM |
| --- | --- |
| CCCCC1CCCN1c1cc(C2CCNCC2)ncn1 (stereo not drawn) [Compound 144] | ~35% |
| c1nc(C2CCCNC2)cc(N2C[C@@H]3C[C@@H]4C[C@H](C3)N[C@@H]2C4)n1 (stereo partly drawn) [Compound 143] | ~31% |

same assay, conditions: 200 nM Arf6 assay; read-out: IC50 (μM) 200 nM Arf6

| SMILES | IC50 |
| --- | --- |
| O=c1cc(Cc2cccnc2)[nH]c2c(-c3ccc(Cl)cc3)c(C(F)(F)F)nn12 [Compound 102] | 17 µM |
| Cc1nn2c(=O)cc(-c3ccc(Cl)cc3)[nH]c2c1-c1ccc(F)cc1 [Compound 105] | 15 µM |
| Cc1cccc(-n2c(/C=C/c3cccnc3)nc3ccccc3c2=O)c1 [Compound 122] | 4.7 µM |

Results, then the compound that gave them:

| IC50 | SMILES |
| --- | --- |
| 2.8 µM | NC(=O)c1ccc(-c2cc(=O)n3nc(Cc4ccccc4)c(-c4ccc(Cl)cc4)c3[nH]2)cc1 [Compound 66] |
| 3.2 µM | O=c1cc(-c2ccc([N+](=O)[O-])cc2)[nH]c2c(-c3ccc(Cl)cc3)c(Cc3ccncc3)nn12 [Compound 46] |
